The data set can be described thus: Inter-conversion relationship (slurry competition) and form stability of free acid forms. The following applies: storage at RT for 1 month, XRPD.

Regarding `[2H]C([2H])(Cc1nc(-c2ccccc2)oc1C)Oc1ccc(C[C@H](OC)C(=O)O)c2sccc12` [free acid Form D], the Form after storage result was “converted to free acid Form E”.

Source of the values: patent US20260234135A1, “CRYSTALLINE FORMS OR SALTS OF A DEUTERATED COMPOUND” (ALEBUND PHARMACEUTICALS (HONG KONG) LIMITED, priority 2023, published 2026).
